Experimental findings from the Deep4Chem optical property database are described below.

This data set can be described thus: photoluminescence quantum yield (fraction); solvent given as SMILES.

SMILES strings stand for the structures.

In the case of `CN(C)c1cc(C#N)c(N(C)C)c(C#N)c1`, the photoluminescence quantum yield (in C1CCCCC1) worked out at 0.37; the photoluminescence quantum yield (in C1CCOC1) came out at 0.54; the photoluminescence quantum yield (in C1COCCO1) is 0.55; the photoluminescence quantum yield (in CC1COC(=O)O1) was determined as 0.58; the photoluminescence quantum yield (in CC#N) is 0.53; the photoluminescence quantum yield (in CC(C)=O) is 0.51. The photoluminescence quantum yield is 0.39 (in CC(C)OC(C)C); 0.47 (in CCC#N); 0.37 (in CCC(C)C); 0.38 (in CCCCCC); 0.58 (in CCCCCCCCO); 0.46 (in CCCCCOCCCCC). The photoluminescence quantum yield by setting is: (in CCCCOC(C)=O) 0.52; (in CCCCOCCCC) 0.45; (in CCCOCCC) 0.55; (in CCO) 0.51; (in CCOC(C)=O) 0.49; (in CCOCC) 0.46. The photoluminescence quantum yield reads like this: (in CN(C)C=O) 0.57; (in CO) 0.52; (in CS(C)=O) 0.55; (in Cc1ccccc1) 0.55; (in ClCCCl) 0.52; (in ClCCl) 0.57. The compound also returned a photoluminescence quantum yield (in N#Cc1ccccc1) of 0.5, a photoluminescence quantum yield (in O) of 0.47, a photoluminescence quantum yield (in OCC(O)CO) of 0.54 and a photoluminescence quantum yield (in c1ccccc1) of 0.57.

For the setting “in C1CCCCC1”, `C(#Cc1ccccc1)C1=Cc2ccc3ccccc3c2NB1c1ccccc1` had a photoluminescence quantum yield of 0.72.

Compound `N#Cc1nc(N(Cc2ccc(Cl)cc2)Cc2ccc(Cl)cc2)c(C#N)nc1N(Cc1ccc(Cl)cc1)Cc1ccc(Cl)cc1` gave a photoluminescence quantum yield (in ClC(Cl)Cl) of 0.71.

Turning to `C1=Cc2nc1c(-c1cccs1)c1ccc([nH]1)c(-c1cccs1)c1nc(c(-c3cccs3)c3ccc([nH]3)c2-c2cccs2)C=C1`, the photoluminescence quantum yield (in CN(C)C=O) was 0.012 and the photoluminescence quantum yield (in ClCCl) amounted to 0.0046.

`F[B-]1(F)n2c(c3ccccc3c2-c2ccccc2)C=C2c3ccccc3C(c3ccccc3)=[N+]21`: the photoluminescence quantum yield reads like this: (in C1CCOC1) 0.57; (in ClCCl) 0.88.

For `Cn1ccc(-n2cncn2)nc1=O`, the photoluminescence quantum yield (in O) amounted to 0.114.

`CC[N+]1(CC)CN2C(=N1)C(C(=O)O)=Cc1cc(Cl)ccc12` yielded a photoluminescence quantum yield (in O) of 0.352.

Take `Cc1cccc(-c2cccc(C)c2)c1`: under “in C1CCCCC1”, the photoluminescence quantum yield turned out to be 0.28.

For `Fc1nc(F)c(F)c(/C=C2/C(c3c(F)c(F)nc(F)c3F)=Cc3ccccc32)c1F`, the photoluminescence quantum yield (in CC#N) was 0.01.

`Cc1ccc(C)c(C2=C3C=CC(=[N+](C)C)C=C3[Si](C)(C)c3cc(N(C)C)ccc32)c1` had a photoluminescence quantum yield (in O) of 0.32.

`O=C1/C(=C\c2ccc3oc4ccccc4c3c2)S(=O)(=O)c2ccccc21` had a photoluminescence quantum yield (in C1CCOC1) of 0.037; a photoluminescence quantum yield (in C1COCCO1) of 0.047; a photoluminescence quantum yield (in CC#N) of 0.041; a photoluminescence quantum yield (in CC(C)=O) of 0.055; a photoluminescence quantum yield (in CCOC(C)=O) of 0.048; a photoluminescence quantum yield (in CN(C)C=O) of 0.192. Moreover, the photoluminescence quantum yield worked out at 0.025 (in CO); 0.209 (in CS(C)=O); 0.116 (in Cc1ccccc1); 0.036 (in ClC(Cl)Cl); 0.092 (in ClCCl).

With `F[B-]1(F)Oc2ccccc2-c2cnc3ccccc3[n+]21`, the photoluminescence quantum yield (in Cc1ccccc1) amounted to 0.086.

`Fc1ccc(-[c+]2c3ccccc3sc3ccccc32)cc1`: under “in CC#N”, the photoluminescence quantum yield was determined as 0.018.

As for `Oc1ccccc1/C=N/CC/N=C/c1ccccc1O`, the photoluminescence quantum yield (in CC#N) was determined as 0.053.

On to `O=P1(c2ccccc2)C(c2ccccc2)=Cc2cc3ccccc3cc21` (stereo unspecified), for which the photoluminescence quantum yield (in ClCCl) came to 0.37.

Compound `CCn1c2cc(-c3cccs3)ccc2c2ccc(-c3cccs3)cc21` displayed a photoluminescence quantum yield (in ClCCl) of 0.61.

Regarding `c1cnc(-c2c3ccccc3c(-c3cncnc3)c3ccccc23)nc1`, the photoluminescence quantum yield is, setting by setting: (in CCO) 0.61; (in ClCCl) 0.78.

Under “in CC#N”, `c1ccc(-c2nc(-c3cccs3)[nH]c2-c2ccccc2)cc1` showed a photoluminescence quantum yield of 0.39.

For the compound `COc1ccc2c(c1)cc(C)c1c3ccccc3[nH]c21`, the photoluminescence quantum yield (in ClCCl) was 0.109.

With `COc1ccc(/N=N/c2c(O)c3ccccc3n(C)c2=O)c(S(=O)(=O)O)c1`, for the setting “in CS(C)=O”, the photoluminescence quantum yield worked out at 0.03.

In the case of `N#Cc1ccc2nc3[nH]c(=O)[nH]c(=O)c3nc2c1`, the photoluminescence quantum yield (in ClCCCl) stood at 0.022.

In turn, `CC(=O)Nc1ccc(C2=C/C(=C\c3ccc(C#N)cc3)C(=O)O2)cc1` displayed a photoluminescence quantum yield (in C1COCCO1) of 0.437.

Under “in ClC(Cl)Cl”, `Cc1ccc(-c2oc3cccc4c5c(-c6ccc(C)cc6)c(=N)oc6cccc(c2c34)c65)cc1` yielded a photoluminescence quantum yield of 0.1.

For `CN1C(=O)c2cccc3c(-n4c5ccccc5c5ccccc54)ccc(c23)C1=O`, the photoluminescence quantum yield reads like this: (in C1CCOC1) 0.031; (in CCCCCC) 0.895; (in ClC(Cl)Cl) 0.204; (in ClCCl) 0.029.

Take `c1ccc(-c2cccc3ncc(-c4ccccc4)n23)cc1`: the photoluminescence quantum yield (in ClCCl) came to 0.24.

As to `c1ccc(N(c2ccccc2)c2ccc(-c3ccncn3)cc2)cc1`, for the setting “in ClCCl”, the photoluminescence quantum yield was 0.55.

In turn, `COC(=O)/C(C#N)=c1\s/c(=c2/s/c(=C(/C#N)C(=O)OC)c3cc(-c4ccccc4)sc23)c2sc(-c3ccccc3)cc12` showed a photoluminescence quantum yield (in Cc1ccccc1) of 0.366.

For `N[C@@H](Cn1nnc2cc(-c3ccc4c(c3)OCO4)ccc21)C(=O)O`, the photoluminescence quantum yield (in CO) is 0.02.

`CC(C)(C)c1ccc2c(c1)c1cc(C(C)(C)C)ccc1n2-c1cc(C(=O)c2cccnc2)cc(-n2c3ccc(C(C)(C)C)cc3c3cc(C(C)(C)C)ccc32)c1`: the photoluminescence quantum yield runs as follows: (in Cc1ccccc1) 0.07; (in c1cc(-c2cccc(-n3c4ccccc4c4ccccc43)c2)cc(-n2c3ccccc3c3ccccc32)c1) 0.92.

Regarding `F[B-]1(F)N2C=CN=CC2=[N+]2[N+]1=Cc1c(-c3ccccc3)cc(-c3ccccc3)n1[B-]2(F)F`, the photoluminescence quantum yield (in ClCCl) was 0.49.

Take `N#Cc1nc(N(Cc2ccc(F)cc2)Cc2ccc(F)cc2)c(C#N)nc1N(Cc1ccc(F)cc1)Cc1ccc(F)cc1`: where the note is “in ClC(Cl)Cl”, the photoluminescence quantum yield was determined as 0.76.

The compound `c1ccc(-c2nc3c4ccccc4c4ccccc4c3n2-c2ccccc2)cc1` gave a photoluminescence quantum yield (in C1CCOC1) of 0.588.

`CCCCCCCCCCCCN1C(=O)c2ccc3c4ccc5c6c(ccc(c7ccc(c2c37)C1=O)c64)C(=O)N(CCCCCCCCCCCC)C5=O` yielded a photoluminescence quantum yield (in CN(C)C=O) of 1.

For the compound `COc1ccc(-c2[nH]c(=O)n3c2-c2ccccc2C3=O)c(OC)c1`, the photoluminescence quantum yield reads like this: (in CC#N) 0.48; (in CO) 0.39; (in ClCCl) 0.57.

In the case of `FC(F)(F)c1ccc(-c2nc(-c3ccc(C(F)(F)F)cc3)n3ccccc23)cc1`, under “in ClC(Cl)Cl”, the photoluminescence quantum yield was 0.16.

The compound `CCCCCCOC(=O)/C=C/C1=CC2=C(c3c(C)cc(C)cc3C)c3cc(/C=C/C(=O)OCCCCCC)cn3[B-](F)(F)[N+]2=C1` returned a photoluminescence quantum yield (in ClCCl) of 0.68.

`Cc1cc(C)c2nc3[nH]c(=O)[nH]c(=O)c3nc2c1` had a photoluminescence quantum yield (in CC#N) of 0.043.

In turn, `COc1ccc(-n2nc(C#N)c(NC3CCCCC3)n2)cc1` gave a photoluminescence quantum yield (in CC#N) of 0.956.

Regarding `COc1cc2c3sc4ccccc4c3c3cncnc3c2c(OC)c1OC`, the photoluminescence quantum yield (in ClCCl) stood at 0.09.

Where the note is “in ClCCl”, `C(=C\c1cc(-c2ccccc2)c(/C=C/c2ccc(N(c3ccccc3)c3ccccc3)cc2)cc1-c1ccccc1)/c1ccc(N(c2ccccc2)c2ccccc2)cc1` showed a photoluminescence quantum yield of 0.8.

The compound `N#CC1=C(c2ccc(-c3cccs3)s2)CC1` returned a photoluminescence quantum yield (in CCO) of 0.18.

As for `CN(C)c1ccc(/C=C/C=C/C2=NC3C(=O)NC(N)=NC3N2[C@H]2C[C@H](O)[C@@H](CO)O2)cc1` (stereo partly specified), the photoluminescence quantum yield was 0.7 (in C1COCCO1), 0.75 (in CC#N) and 0.58 (in CO).

For the compound `COc1ccc(N(c2ccc(OC)cc2)c2cc3ccc4cc(B(c5c(C)cc(C)cc5C)c5c(C)cc(C)cc5C)cc5ccc(c2)c3c45)cc1`, the photoluminescence quantum yield runs as follows: (in C1CCOC1) 0.44; (in CC(C)=O) 0.21; (in CCCCCC) 0.22; (in Cc1ccccc1) 0.27; (in ClC(Cl)Cl) 0.23; (in ClCCl) 0.42.

For the setting “in O”, `Cc1cc(N(C)C)ccc1C1=C2C=CC(=[N+](C)C)C=C2[Si](C)(C)c2cc(N(C)C)ccc21` showed a photoluminescence quantum yield of 0.001.

`O=P1(c2ccccc2)c2cccc3c4c5ccccc5c5ccccc5c4c4ccc1n4c23` (stereo unspecified) yielded a photoluminescence quantum yield (in ClCCl) of 0.97.

`CC1(C)c2ccccc2N(c2ccc3c(c2)Oc2ccccc2S3(=O)=O)c2ccccc21` returned a photoluminescence quantum yield (in Cc1ccccc1) of 0.48 and a photoluminescence quantum yield (in O=P(c1ccccc1)(c1ccccc1)c1ccccc1Oc1ccccc1P(=O)(c1ccccc1)c1ccccc1) of 0.98.

In the case of `CCCCC(CC)CN1C(=O)c2cccc3c(C#Cc4ccc(N(c5ccccc5)c5ccccc5)cc4)ccc(c23)C1=O` (stereo unspecified), the photoluminescence quantum yield is 0.66 (in C1CCCCC1); 0.62 (in C1CCOC1); 0.026 (in CC#N); 0.89 (in Cc1ccccc1); 0.51 (in ClC(Cl)Cl).

Consider `O=C1OC(=O)c2ccc(N(c3ccccc3)c3ccc4ccccc4c3)c3cccc1c23`, for which the photoluminescence quantum yield runs as follows: (in C1CCOC1) 0.0003; (in CCCCCC) 0.335; (in c1ccccc1) 0.0162.

Consider `Oc1ccc2ccccc2c1/C=N/C1CCCCC1/N=C/c1c(O)ccc2ccccc12` (stereo unspecified), for which the photoluminescence quantum yield (in CC#N) was found to be 0.078.

The compound `CCCCCCCCc1ccc(-n2c3c4ccccc4nc(-c4ccc(C#N)cc4)c3c3c2c2c(-c4ccc(C#N)cc4)nc4ccccc4c2n3-c2ccc(CCCCCCCC)cc2)cc1` yielded a photoluminescence quantum yield (in ClC(Cl)Cl) of 0.14.

As for `c1ccc2c(-c3c4ccccc4c(-c4ccc(-c5ccc(-n6c7ccccc7c7ccccc76)cc5)cc4)c4ccccc34)cccc2c1`, the photoluminescence quantum yield (in ClCCl) amounted to 0.7.
